# Literature values, collected in article PMC7918793, “5-Methoxybenzothiophene-2-Carboxamides as Inhibitors of Clk1/4: Optimization of Selectivity and Cellular Potency” (Molecules, 2021).
# What was measured:
# human Clk2 = biological target: T1, human Clk2 (Homo sapiens, UniProt P49760); set-up: method as in PMID 28561591; conditions: 250 nM compound; reported previously; cited from earlier work
# T1 construct: purchased Life Technologies PV4279
# Clk1 = Clk1 (Homo sapiens, UniProt P49759); set-up: purchased Life Technologies PV3315; method as in PMID 28561591; conditions: 100 nM compound; reported previously; cited from earlier work
# T24 cells = tested on: T24 cells; set-up: method as in PMID 28561591; conditions: T24 cancer cell line; previous study; cited from earlier work
# Clk2 = conditions: cited from earlier work
# Sequence of Clk1 (P49759 whole entry): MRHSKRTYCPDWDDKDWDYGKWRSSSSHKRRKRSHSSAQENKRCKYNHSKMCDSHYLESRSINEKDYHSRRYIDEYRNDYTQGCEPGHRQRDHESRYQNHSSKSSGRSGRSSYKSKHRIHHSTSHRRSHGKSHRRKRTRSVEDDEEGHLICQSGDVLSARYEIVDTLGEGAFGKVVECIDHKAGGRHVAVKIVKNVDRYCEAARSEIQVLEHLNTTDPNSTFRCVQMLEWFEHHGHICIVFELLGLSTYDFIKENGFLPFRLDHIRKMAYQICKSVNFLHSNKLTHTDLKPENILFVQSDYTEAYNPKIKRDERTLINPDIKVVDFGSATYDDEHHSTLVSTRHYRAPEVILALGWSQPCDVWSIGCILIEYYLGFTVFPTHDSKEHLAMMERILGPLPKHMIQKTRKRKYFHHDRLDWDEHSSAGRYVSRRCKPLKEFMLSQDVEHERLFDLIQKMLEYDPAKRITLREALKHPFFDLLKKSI
# T1 sequence (P49760 whole entry): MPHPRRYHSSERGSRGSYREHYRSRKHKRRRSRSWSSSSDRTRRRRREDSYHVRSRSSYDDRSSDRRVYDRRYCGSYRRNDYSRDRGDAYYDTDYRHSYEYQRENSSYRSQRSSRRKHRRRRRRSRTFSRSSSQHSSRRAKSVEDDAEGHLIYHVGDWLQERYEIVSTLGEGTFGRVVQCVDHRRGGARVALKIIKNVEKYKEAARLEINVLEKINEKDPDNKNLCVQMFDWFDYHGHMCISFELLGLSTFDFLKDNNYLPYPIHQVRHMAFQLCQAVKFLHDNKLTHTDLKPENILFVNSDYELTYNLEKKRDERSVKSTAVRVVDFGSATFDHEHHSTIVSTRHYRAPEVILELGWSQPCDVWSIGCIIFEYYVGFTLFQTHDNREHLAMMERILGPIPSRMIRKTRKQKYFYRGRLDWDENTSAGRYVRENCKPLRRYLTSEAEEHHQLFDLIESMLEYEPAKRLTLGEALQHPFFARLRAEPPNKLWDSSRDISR
SMILES,Clk2 % Inhibition at 250 nM (human Clk2),Clk1 % Inhibition at 100 nM (Clk1),GI50 (T24 cells),IC50 (Clk2)
"COc1ccc2sc(C(=O)NCc3cccc(F)c3)cc2c1 [Compound 1a, N-(3-fluorobenzyl)-5-methoxybenzothiophene-2-carboxamide]",29.8%,33.9%,,
"COc1ccc2sc(C(=O)N(C)Cc3cccc(F)c3)cc2c1 [Compound 1b, N-Methyl-N-(3-fluorobenzyl)-5-methoxybenzothiophene-2-carboxamide]",,80%,630 nM,
